Assay results from PubChem BioAssay (NCI).
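1) Cells in 96-well plates. 2) Compound, 48 h, 5 concentrations. 3) Linear interpolation between surrounding doses. 4) Unreached endpoint = highest concentration. Abbreviation: GI50, concentration required for 50% inhibition of growth. TGI: total growth inhibition.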

Assays:
Experiment in all cases: growth of human tumour cells (NCI), 48 h
MOLT-4 leukemia = tested on: MOLT-4 leukemia
UO-31 renal = tested on: UO-31 renal
SN12C renal = tested on: SN12C renal
NCI-H522 lung = tested on: NCI-H522 lung
K-562 leukemia = tested on: K-562 leukemia
DU-145 prostate = tested on: DU-145 prostate
SF-539 CNS = tested on: SF-539 CNS
MDA-MB-435 = tested on: MDA-MB-435

| Compound | GI50 (MOLT-4 leukemia) [µM] | TGI (MOLT-4 leukemia) [µM] | GI50 (UO-31 renal) [µM] | TGI (UO-31 renal) [µM] | GI50 (SN12C renal) [µM] | TGI (SN12C renal) [µM] | GI50 (NCI-H522 lung) [µM] | TGI (NCI-H522 lung) [µM] | GI50 (K-562 leukemia) [µM] | TGI (K-562 leukemia) [µM] | GI50 (DU-145 prostate) [µM] | TGI (DU-145 prostate) [µM] | GI50 (SF-539 CNS) [µM] | TGI (SF-539 CNS) [µM] | GI50 (MDA-MB-435) [µM] | TGI (MDA-MB-435) [µM] |
| --- | --- | --- | --- | --- | --- | --- | --- | --- | --- | --- | --- | --- | --- | --- | --- | --- |
| C/C1=C/C(=O)O[C@@H]2C[C@@H](CC[C@H](C)/C=C\C=C\CC1)O[C@@](O)([C@@H]1CSC(=O)N1CO)C2 | 3.42 | > 51.8 | 0.0241 | 0.132 | 0.0485 | > 57.4 | 0.0371 | 2.84 | 0.213 | 27.1 | 0.239 | > 57.3 | 0.0274 | 12.4 | 0.29 | > 88.6 |
| CCCCCCCCCCCCNC(=O)[C@H]1CSC(c2cc3ccccc3s2)N1 (stereo partly drawn) | 0.657 | 1.37 | 4.16 | 8.37 | 2.8 | 7.24 | 5.11 | 11.1 | 0.717 | 1.62 | 1.21 | 4.19 | 1.36 | 4.79 | 0.605 | 1.19 |
| COc1cc(-c2nc(NC(C)=O)sc2-c2ccnc(NCCNS(=O)(=O)c3ccccc3)n2)ccc1Cl | 3.17 | > 100 | 4.46 | > 100 | 5.47 | > 100 | 1.99 | 8.72 | 3.87 | > 100 | 5.11 | > 100 | 2.86 | 8.48 | 0.799 | 3.45 |
| COc1ccccc1-c1cc(/C=C2\C(=O)Nc3ncc(Br)cc32)cc(Br)c1O | 9.31 | > 25 | 4.49 | > 25 | 12.1 | > 25 | 6.1 | > 23.3 | 9.76 | > 25 | 17.6 | > 25 | > 19.3 | > 25 | 7.47 | > 25 |
| CC(C)CC1C(=O)N2CCC[C@H]2C2(O)O[C@](NC(=O)C3C=C4c5cccc6[nH]c(Br)c(c56)C[C@H]4N(C)C3)(C(C)C)C(=O)N12 (stereo partly drawn) | 5.06 | > 100 | 2.02 | > 100 | 10.2 | > 100 | – | – | 6.17 | > 100 | – | > 100 | – | > 100 | 16.7 | > 100 |
| CCOC(=O)C(Cc1c[nH]c2ccc([N+](=O)[O-])cc12)(NC(C)=O)C(=O)OCC | 35.2 | > 1000 | 80.3 | > 1000 | 502 | > 1000 | 79.5 | 460 | 47.7 | > 1000 | > 714 | > 1000 | 134 | > 473 | > 1000 | > 1000 |
| Cc1nc2ccccn2c1NC(=O)NNC(=S)Nc1ccc(Br)cc1 | 36.7 | > 100 | 82.5 | > 100 | 35.9 | > 100 | 30.1 | 79.1 | 21.8 | 54.6 | 45.9 | > 100 | 22.4 | 55.2 | 29.3 | 70.6 |
